Values of other authors in patent publication US20240252632A1, “METHODS OF TREATING LUNG CANCER WITH A PD-1 AXIS BINDING ANTAGONIST, AN ANTIMETABOLITE, AND A PLATINUM AGENT” (Genentech, Inc., priority 2018, published 2024).

In the case of `[NH3+][Pt-2]1([NH3+])[O]C(=O)C2(CCC2)C(=O)[O]1` [Carboplatin, platinum, diammine[1,1-cyclobutanedicarboxylato(2-)-O,O′]—, (SP-4-2)], the “solubility in ethanol, acetone, and dimethylacetamide” value (ethanol, acetone, dimethylacetamide) is listed as “virtually insoluble” and the solubility in water (water) is listed as “approximately 14 mg/mL”.
